Measurements as given in patent US12402627B2, “Metal complexes for promoting growth in a photosynthetic organism” (Imperial College Innovations Limited, priority 2018, dated 2025).

Key:
[1] = Kinetic measurement of CO2 hydration via stopped flow; format: biochemical; settings: pH 7.4; for Hydration kobs: 25° C.
Excerpt: (§1) The hydration and dehydration rate measurements were undertaken by detecting the associated pH change through the use of an appropriate colorimetric pH indicator via stopped-flow equipment (Applied Photophysics SX-20 Stopped-flow Spectrometer) as described by B. H. Gibbons et al. (J. Biol. Chem., 238(10), (1963), 3502-3507). The pH time-dependence of CO2 hydration or HCO3− dehydration was observed via the absorbance change of a buffered indicator solution in order to measure the change in Vhydr/dehydr over a concentration range of zinc mimic, and to determine the observed rate constant (kobs) for each reaction.
(§2) Following the procedure reported by K. Nakata et al. (J. Inorg. Biochem., 89, (2002), 255-266), a 0.1 M buffer solution containing 10×10^−5M indicator, 0.2 M NaClO4 and varying concentrations of the zinc complex in DMSO 1:9 H2O were loaded into one syringe and a CO2 or HCO3− aqueous solution in the other. […] The saturated solution was diluted appropriately to give the desired concentration of CO2. HCO3− solutions were prepared by dissolving NaHCO3 in water to give the desired concentration of HCO3−. The buffer-indicator pairs were chosen based upon their similar pKa's, and the pH of the buffer-indicator solution was adjusted to match these pKa's to maximize sensitivity to pH change (see Table 2).
(§3) Upon mixing of the two syringes, the change in absorbance over time was measured at 25° C. For each buffer solution employed over the tested pH range, the buffer factor (change in absorbance vs concentration of HCl/NaOH) and linearity of CO2 and HCO3− (change in absorbance vs concentration of CO2/HCO3−) were determined as controls.
(§4) Based upon the linearity of the response between CO2 or HCO3− concentration and change in absorbance, appropriate concentrations of CO2 or HCO3− were chosen within the linear range for the subsequent complex runs. At each concentration of complex, the Vhydr (rate of hydration) and Vdehyd (rate of dehydration) was measured and kobs (observed rate constant) was calculated as per the procedure of by K. Nakata et al. (J. Inorg. Biochem., 89, (2002), 255-266).
(§5) Briefly, Vhyd/dehyd=−Q(A0−Ae)[d(In(A−Ae))/dt]t→0, where Q=buffer factor. The function [d(In(A−Ae))/dt]t→0 was taken from fitting the first linear portion of the time-dependent absorbance data with a single exponential decay function. kobs was calculated as the slope of the linear fit between mimic concentration and Vhyd/dehyd/[S]. kcat (catalytic rate constant) was calculated as the pH independent catalyst rate constant as per K. Nakata et al. (J. Inorg. Biochem., 89, (2002), 255-266) and L. Koziol et al. (Inorg. Chem., 51(12), (2012) 6803-12) for the hydration reaction (kcat=kobs×(([H^+]/Ka)+1)), and Y.-J. Sun et al. (Inorg. Chem. Commun., 7(2), (2004), 165-168) for the dehydration reaction (kcat=(kobs×([H^+]+Ka))/[H^+]). Each run of 3 repeats was undertaken 3 times and the average taken, to give N=9.

[2] = Kinetic measurement of HCO3− dehydration via stopped flow; format: biochemical; settings: for Dehydration kobs: pH 7.4, 25° C.
Excerpt: as §1, §2, §3, §4, §5

Rubisco = target: T1, Rubisco (Spinacia oleracea, UniProt P00875); assay: Effect of zinc mimics on Rubisco activity (non-radioactive microplate assay, 3-PGA/NADH oxidation); format: biochemical; settings: pH 8; 0-50 μM zinc mimic; FIGS. 4 to 7
T1 construct: from tissue; purified by the cited method of O'Donnelly et al., Plant Methods 2014
Description: Rubisco was purified using hydrophobic interaction chromatography as per the method of K. O'Donnelly et al. (Plant methods, 10, (2014), 17). For all assays, the rate was determined using a non-radioactive microplate-based assay, which determines the product 3-phosphoglycerate (3-PGA) through the oxidation of NADH by optical density measurements at 340 nm at 25° C., adapted from R. Sulpice et al. (Plant Cell Environ., 30(9), (2007), 1163-75) and K. O'Donnelly et al. (Plant methods, 10, (2014), 17). A Thermo Scientific Varioskan Flash Multimode microplate reader was used to monitor the oxidation of NADH for 15 minutes every 100 ms.
The enzymological properties of Rubisco were typically measured as follows: 10 μL Rubisco and 10 μL of initial buffer were incubated for 15 mins, after which 10 μL of ribulose 1,5-biphosphate (RuBP) was added [Final concentrations for Rubisco assay in 30 μL total volume were 0, 10, 20, 40, 80, 150, 300 and 500 μM RuBP, 0.02 mg/mL Rubisco, 100 mM tricine (pH 8.0/NaOH), 20 mM MgCl2, 2 mM EDTA and 10 mM NaHCO3]. […] The activity was calculated as μmol·min^−l·mg^−1 using a calibration curve with 3PGA. […]
10 μL of Rubisco and 10 μL of pH 8 initial buffer containing varying concentrations of zinc complex were incubated in a 96 well plate for 15 mins. […] The final pH, after the addition of NaHCO3, and before the addition of Rubisco, was measured as pH 8.0. […]

[3] = system: spinach (Spinacia oleracea L.); assay: Effect of zinc mimics on spinach growth (number of new leaves); format: in vivo; settings: 1.5 mM in DMSO or H2O, 5 μl droplets to each leaf, three times a week for two weeks, FIG. 8
Description: Commercial cultivar spinach seeds (Spinacia oleracea L.) were planted in soil mixture of “John Innes Inc. seed sowing compost No2”: Vermiculite (4:1) in small pots. Spinach seeds were germinated in a Sanyo MLR-352 growth chamber under day (photosynthetically active photon flux density (PPFD) at 110-130 μmol·m-2s-1) and night conditions, changing every 12 hours. Air temperature was maintained at 20° C. and 15° C. during day and night conditions, respectively, with a constant relative humidity at 65%. Spinach plants were irrigated three times a week. At the second true leaf stage (approximately 3 weeks from seed germination), the seeds were transferred into larger singular pots in “John Innes No2—Potting on compost” soil. No extra fertilizer was added.
At the fourth true leaf stage (roughly 4-6 weeks after germination), the treatment (1.5 mM in DMSO or H2O) was applied directly to each leaf of the plant in 5 μl droplets using a Brand Handystep S. The treatments were applied three times a week (directly after irrigation) for two weeks. The leaf stage and the state of the leaves were observed throughout the treatment period.

[4] = high substrate concentration (16.9 mM)
[5] = low substrate concentration (1.69 mM)

| rubisco activity (Rubisco) | Compound | Hydration:Dehydration Ratio [1, 4] | Hydration kobs [1, 4] [M⁻¹ s⁻¹] | Hydration:Dehydration Ratio [1, 5] | Hydration kobs [1, 5] [M⁻¹ s⁻¹] | Dehydration kobs [2, 4] [M⁻¹ s⁻¹] | Dehydration kobs [2, 5] [M⁻¹ s⁻¹] | number of new leaves [3] | specificity toward dehydration ([2]; from the results in Tables 3 and 4, pH 7.4) |
| --- | --- | --- | --- | --- | --- | --- | --- | --- | --- |
| significant improvement in activity | O.[O-][Cl+3]([O-])([O-])[O-].[O-][Cl+3]([O-])([O-])[O-].[Zn+2].c1ccc2sc(CN(Cc3nc4ccccc4s3)Cc3nc4ccccc4s3)nc2c1 [Zn3S, zinc complex of tris(2-benzothiazolylmethyl)amine] | 0.65 | 24.5 ± 10.4 | 3.05 | 429.7 ± 51.2 | 37.8 ± 0.8 | 140.8 ± 4.8 |  |  |
|  | zinc complex of tris(2-benzimidazolylmethyl)amine [Zn3N] | 1.02 | 34.4 ± 11.3 | 4.13 | 512.3 ± 60.3 | 33.8 ± 0.8 | 124.1 ± 1.8 | significant improvement in the number of new leaves |  |
|  | zinc complex of bis(2-benzimidazolylmethyl)(2-benzothiazolylmethyl)amine [Zn2N1S] | 0.60 | 26.6 ± 11.1 | 3.14 | 495.4 ± 34.0 | 44.6 ± 1.6 | 157.6 ± 2.1 |  |  |
|  | zinc complex of bis(2-benzimidazolylmethyl)amine [Zn2N] | 0.80 | 22.0 ± 9.3 | 3.94 | 370.6 ± 13.4 | 27.5 ± 0.5 | 94.1 ± 1.6 |  |  |
|  | O.[O-][Cl+3]([O-])([O-])[O-].[O-][Cl+3]([O-])([O-])[O-].[Zn+2].c1ccc2sc(CNCc3nc4ccccc4s3)nc2c1 [Zn2S, zinc complex of bis(2-benzothiazolylmethyl)amine] | 0.57 | 17.5 ± 8.6 | 3.01 | 347.1 ± 33.0 | 30.6 ± 0.6 | 115.2 ± 1.8 |  |  |
| significant improvement in activity | zinc complex of bis(2-benzothiazolylmethyl)(2-benzimidazolylmethyl)amine [Zn1N2S] | 0.49 | 25.3 ± 8.4 | 2.57 | 440.8 ± 24.5 | 51.9 ± 0.5 | 171.3 ± 4.5 |  | best specificity toward dehydration |
